Results: a melting point compilation (Tetko et al.; mined from patent text by program, amines drawn as free bases though some values may be those of a salt)

| SMILES | melting point [°C] |
| --- | --- |
| CNc1nc(-c2cccc(NC(=O)c3ccc(S(C)=O)cc3)c2)c2cc(OC)c(OC)cc2n1 (stereo not drawn) | 246 to 248 |
| COc1ccc(C2=CC(N3CCN(Cc4ccccc4)CC3)=NC23C=CC(=O)C=C3)cc1 | 190 |
| CN(C)C1CCC(Nc2nc3cc4c(cc3nc2-c2ccccn2)CCC4)CC1 (stereo not drawn) | 158 to 161 |
| Cc1cc(-c2cnn3c(C(F)(F)F)cc(-c4ccc(C(F)(F)F)cc4)nc23)ccn1 | 243 |
| COc1cccc2cc(C(=O)N[C@@H](CC(N)=O)C(=O)N[C@@H](Cc3ccccc3)[C@H](O)C(=O)N3C[C@@H](Cl)C[C@H]3C(=O)NC(C)(C)C)oc12 | 125 to 136 |
| CC(C)NC1=NS(=O)(=O)c2cc(Br)ccc2N1 | > 220 |
| COC(=O)CCn1cc(C2=C(c3cn(C)c4ccccc34)C(=O)NC2=O)c2ccccc21 | 209 to 211 |
| CC(C)(C)c1cc(CC=Cc2ccccc2)c(O)c(C(C)(C)C)c1 | 89 |
| CON=C(C)C(=NOCc1ccccc1)C(=O)O | 88 to 89 |
| CC(C)CC(=O)OCC(COC(=O)CC(C)C)OCn1cnc2c(=O)[nH]c(N)nc21 | 215 to 217 |
| COc1ccc(-n2nc(C(F)(F)F)cc2-c2ccc(S(C)(=O)=O)cc2)cc1F | 178 to 180 |
| Cc1c(-c2ccccc2)oc2c(SCCCCl)cccc2c1=O | 84 to 86 |
| O=C(Cn1c(-c2cccc(Cl)c2)nc2cccnc21)Nc1ccccn1 | 165 to 166 |
| Cc1nc(N)nc(O)c1I | 212 |
| Cc1c(-c2ccc(OCc3ccccc3)cc2)n(Cc2ccc(OCCCN3CCCCC3)cc2)c2ccc(OCc3ccccc3)cc12 | 104 to 106 |
| OCC1OC(n2cnc3c(-n4cccc4)ncnc32)C(O)C1O (stereo not drawn) | 114 to 115 |
| COc1cc2c(c3c1OC(C)(C)C3)C(c1cccc(NS(=O)(=O)N(C)C)c1)=NC(C)(C)C2 | 134 to 136 |
| Cc1cc2c(Cl)c3ccccc3c(C=O)c2cc1C | 150 to 153 |

| SMILES | melting point [°C] |
| --- | --- |
| Cc1c(CCCCCCCCCC(=O)O)cccc1C(=O)c1ccc(Cl)cc1 | 74 |
| CC(C)OC(=O)OCC1(C)COC(=O)OC1 | 64 to 65 |
| COC(CNC(=O)N(N=Cc1ccccc1)c1cc(Cl)c(Cc2ccc(C(=O)c3ccc(Cl)cc3)cc2)c(Cl)c1)OC | 158 to 160 |
| CCN(CC)C(=O)c1ccc2cc(-c3csc(N(C)S(=O)(=O)c4ccccc4)n3)c(=O)[nH]c2c1 | 200 to 202 |
| CC(C)(C)C(=O)CC(c1ccc(Cl)cc1)S(=O)(=O)c1ccccc1 (stereo not drawn) | 145 to 146 |
| CCc1cc(C#N)c(=O)[nH]c1C | 237 to 240 |
| c1ccc(Oc2cccc(Nc3nnc(Cc4ccncc4)c4ccccc34)c2)cc1 | 186 to 189 |
| CC(CC(=O)NC(Cc1c[nH]c2ccccc12)C(=O)CCc1cc(C(F)(F)F)cc(C(F)(F)F)c1)c1ccccc1 (stereo not drawn) | 133 to 137 |
| C=C1NC(Nc2ccccc2)=C(C(=O)OCC)C(NN)=C1C#N | 174 to 176 |
| Clc1ccc(-c2nc3cc(Cl)ccc3o2)cc1 | 178 to 183 |
| C#CCOc1ccc(C)cc1S(=O)(=O)NC(=O)Nc1nc(Cl)cc(OC)n1 | 202 to 204 |
| Cc1cccc(NC(=O)NCC(=O)N2[C@@H](C(=O)N(C)c3ccccc3)CC[C@H]2c2ccccc2)c1 (racemic) | 210 |
| Cc1cc(OC(F)F)nc(NC(=O)NS(=O)(=O)c2ccccn2)n1 | 150 to 151 |
| CC(C)c1c(-c2cc(C(F)(F)F)cc(C(F)(F)F)c2)ccc2nc(N)nc(N)c12 | 212 to 214 |
| Cn1c2cc(OCC(O)CO)ccc2c2c3c(c(-c4ccccc4Cl)cc21)C(=O)NC3=O (stereo not drawn) | 287 to 290 |
| CCCn1c(=O)c(-c2ccccc2)c2n(c1=O)C=CCS2=O (stereo not drawn) | 174 to 175 |
| CCOC(=O)[C@H]1O[C@@H]1C(=O)N[C@H](CNC(=O)c1ccccc1)CC(C)C | 126 to 129 |

Next, values leading:

| melting point [°C] | SMILES |
| --- | --- |
| 45 to 47 | CC(=O)Oc1ccc(Cl)nc1 |
| 188 to 190 | Nc1cnc(-c2cc(Cl)cc(Cl)c2Cl)c(NC(=O)C2CC2)n1 |
| 193 to 195 | CC(=O)N(C)S(=O)(=O)c1cc(-n2c(=O)cc(C(F)(F)F)n(C)c2=O)ccc1Cl |
| 141 to 142 | Cc1ccc(S(=O)(=O)c2ccc3c(c2)C(O)C(Br)C(C)(C)O3)cc1 (stereo not drawn) |
| 116 | CC1(C)CCC(C)(C)c2cc(C(=O)c3ccccc3C(=O)N(CCO)CCO)ccc21 |
| 138 to 140 | O=C1NC(=O)C(c2cccs2)O1 (stereo not drawn) |
| 195 to 196 | O=C(NN=Cc1ccc2ccccc2n1)c1ccccc1[N+](=O)[O-] |
| 192 to 193 | COC(=O)C1=C(C)NC(C)=C(c2nc(-c3ccc(CN(C)Cc4ccccc4)cc3)no2)C1c1cccc([N+](=O)[O-])c1 (stereo not drawn) |
| 163 to 168 | CCOCc1nc2c(N)nc3cc(O)ccc3c2n1CC(C)(C)NC(=O)NC(C)C |
| 146 | CNS(=O)(=O)c1cc(C(=O)c2c(C)oc3ccccc23)ccc1Cl |
| 184 to 189 | Nc1ccc(C(=O)N2CCOCC2)cc1[N+](=O)[O-] |
| 155 to 158 | COc1ccccc1N(CCN1CCC(C(=O)c2ccc(F)cc2)CC1)C(=O)c1ccc(C#N)cc1 |
| 137 to 138 | O=C(CC(Cc1ccccc1)C(=O)O)c1ccc(Cl)cc1 (racemic) |
| 178 to 182 | O=C(C1CCC(Nc2ncc3ncnc(Nc4ccc(F)c(Cl)c4)c3n2)CC1)N1CCNCC1 (stereo not drawn) |
| 85 to 92 | Cc1ccc(-c2ccccc2C(=O)O)cc1C(=O)NCC12CC3CC(CC(C3)C1)C2 |
| 64 to 67 | CC(=O)N(CC(C)O)c1c(C)cccc1C (stereo not drawn) |
| 99 to 101 | Cc1cc(C(O)C(=O)c2ccccc2)c(C)c(C)c1C (stereo not drawn) |

| melting point [°C] | SMILES |
| --- | --- |
| 107 to 111 | CCOC(=O)c1nccn1Cc1ccccc1[N+](=O)[O-] |
| 145 to 146 | CN1CCNC1=C(Cl)[N+](=O)[O-] |
| 69 to 70 | CCOC(=O)/C=C(\c1ccc(C)cc1)c1ccc(OC)c(OC)c1 |
| 220 to 222 | CCOC(=O)c1nc2cc(NC(=O)OC(C)(C)C)ccn2n1 |
| 207 to 208 | COc1nc2c(S(=O)(=O)c3ccccc3)c(SC)nn2c(N2CCN(C)CC2)c1C |
| 130 to 132 | CCCCN1CCN(CCCC)C2SC(=C3C(=O)CC(c4ccccc4)CC3=O)SC21 (stereo not drawn) |
| 215 to 218 | NC(=O)c1sc2nccc(N3CCCN(c4ccccc4)CC3)c2c1N |
| 154 to 155 | CCOC(=O)OC1=C(c2c(C)cc(C)cc2C)C(=O)N(O)C12CCN(OC)CC2 |
| 106 | CCOC(=O)c1cc(O)c2c(OC(C)C)ccc(Br)c2c1 |
| 192 | COC(=O)C1=C(C)N(Cc2ccccc2[N+](=O)[O-])C(C)=C(C(=O)OC)C1c1cccc2nonc12 |
| 169 to 171 | Cc1ccsc1C=Nc1cc([N+](=O)[O-])ccc1O |
| 184 to 187 | CCOC(=O)c1cn(Cc2c(F)cccc2F)c2cc(Br)c(CBr)cc2c1=O |
| 68 | CC(C)Cc1ccc(N)cc1C#N |
| 157 to 160 | O=C1C(CCO)Oc2cc([N+](=O)[O-])ccc2N1Cc1cccc([N+](=O)[O-])c1 (stereo not drawn) |
| 108 to 111 | CCOc1nc(CCO)nc(N2CCc3ccccc3CC2)c1C#N |
| 209 to 210 | O=C1CCCc2cc(O)cc(O)c21 |
